Publication PMC5368910 (BMC Pharmacology & Toxicology, 2017)
Read-outs that look alike come from different tables or passages of the source.

Legend:
[1] = test system: Clostridium difficile-associated diarrhea (CDAD); details: stated for vancomycin and metronidazole treatments together; cited from earlier work
Excerpt: Despite having a clinical response rate of ~73 to 85%, vancomycin and metronidazole treatments are associated with recurrent CDAD in up to 45% of patients. Aggressive vancomycin and metronidazole treatment is also associated with disruption of the intestinal microbiota and can promote colonization by vancomycin-resistant enterococci, highlighting the need for novel treatment options. An ideal agent for the treatment of CDAD should be associated with low levels of systemic absorption, resulting in high concentrations of the drug in the colon, combined with a narrow spect ...

[2] = rats; ref Yin N et al., ICAAC 2010, unpublished data; cited from earlier work
[3] = after the first single oral dose, both SAD and MAD groups
Protocol: (§1) Randomization was assigned by blinded study personnel and stratified by gender to achieve an equal number of male and female subjects in each cohort. Subjects aged 18–49 years and 50–75 years were equally distributed in each dosing cohort.
(§2) Any subject receiving at least one full dose of the study drug was included in the PK analysis population. PK analysis during the SAD study was conducted on serial plasma samples collected predose and at 30 min, 1, 2, 4, 6, 8, 12, 24, 48, and 72 h after dosing, and analyzed using a validated liquid chromatography-tandem mass spectrometry (LC/MS/MS) method, with a lower limit of quantification (LLOQ) of 1 ng/mL. […] The samples were analyzed using an API 5000 triple quadrupole mass spectrometer (Applied Biosystems/ScieEx, Concord, ON, Canada) using electrospray ionization in positive ion mode. Analyst^TM software (version 1.4.2., Applied Biosystems, Foster City, CA, USA) was used for data acquisition. In total, 8 calibration solutions with a range of 1.00 ng/mL to 1000 ng/mL were used as internal standards in addition to a blank. Inter-assay bias was determined to be –2.6 to 2.5% with inter-assay precision of 3.9 to 9.4%.
(§3) Plasma PK parameters were calculated using standard noncompartmental methods in a validated version of WinNonlin (version 5.2, Pharsight, Mountain View, CA, USA). All concentrations that were below the LLOQ prior to the first detectable concentration were assigned a value of 0. All concentrations that were below the LLOQ after the first quantifiable concentration were designated as missing and replaced with a period. Actual sample collection times were used in the analysis of the concentration versus time profiles for individual subjects. Integration of plasma concentrations versus time was conducted using the linear-up, log-down function in WinNonlin. The following parameters were determined: maximum plasma concentration (Cmax), time of Cmax (Tmax), area under the concentration-time curve (AUC) from 0 to last measurable plasma concentration (AUC0-t), AUC from 0 to infinity (AUC0-∞), percent of dose excreted in the urine, and terminal exponential half-life (t½).

C. difficile = test system: C. difficile; set-up: method as in PMID 22183166, PMID 22391542; details: cited from earlier work; for minimum inhibitory concentration at which 90% of the isolates were inhibited [MIC90]: in vitro, C. difficile isolates
clinical [4] = details: both, human, plasma, po
Protocol: as §1, §2, §3

[5] = MAD, 500 mg BID oral, plasma, LC/MS/MS, LLOQ 1 ng/mL, median (range)
Protocol: (§4) Subjects were dosed BID, once in the morning and once in the evening, for 14 consecutive days, with at least 8 ounces of water and approximately 1 h after breakfast and 1 h after dinner.
(§5) During the MAD study, serial plasma samples for PK analysis were collected predose and at 30 min, 3, 6, and 9 h after the morning dose on days 1 and 14, and before the morning dose on days 4, 7, 10, and 12 (trough levels). […] Samples were analyzed using the same bioanalytical LC/MS/MS method as in the SAD study (LLOQ of 1 ng/mL).
as §3

[6] = not given; remark: listed apart in the source
[7] = test system: initial and relapsing hamster CDAD; set-up: method as in PMID 22802252; details: given orally; potency similar to vancomycin; cited from earlier work
[8] = dogs; ref Yin N et al., ICAAC 2010, unpublished data; cited from earlier work
clinical [9] = details: both, human, plasma, po, MAD, median (range); for AUC(0-t): AUC0–t; for Tmax: LLOQ 1 ng/mL
Protocol: as §4, §5, §3

[10] = SAD, single oral dose, urine over a 7-day period, LC/MS/MS
Protocol: Any subject receiving at least one full dose of the study drug was included in the PK analysis population. PK analysis during the SAD study was conducted on serial plasma samples collected predose and at 30 min, 1, 2, 4, 6, 8, 12, 24, 48, and 72 h after dosing, and analyzed using a validated liquid chromatography-tandem mass spectrometry (LC/MS/MS) method, with a lower limit of quantification (LLOQ) of 1 ng/mL. Urine and stool samples were also collected during this period and analyzed using LC/MS/MS. Urine and feces were collected for 7 days after dose administration. The samples were analyzed using an API 5000 triple quadrupole mass spectrometer (Applied Biosystems/ScieEx, Concord, ON, Canada) using electrospray ionization in positive ion mode. […]
Plasma PK parameters were calculated using standard noncompartmental methods in a validated version of WinNonlin (version 5.2, Pharsight, Mountain View, CA, USA). […] All concentrations that were below the LLOQ after the first quantifiable concentration were designated as missing and replaced with a period. […] The following parameters were determined: maximum plasma concentration (Cmax), time of Cmax (Tmax), area under the concentration-time curve (AUC) from 0 to last measurable plasma concentration (AUC0-t), AUC from 0 to infinity (AUC0-∞), percent of dose excreted in the urine, and terminal exponential half-life (t½).

[11] = MAD, subjects who received surotomycin (n = 24)
[12] = SAD, of the 32 subjects who received surotomycin
[13] = 250 mg, 250 mg BID oral, day 1, LC/MS/MS, cohort n = 8
[14] = 1000 mg, 1000 mg BID oral, day 1, LC/MS/MS, cohort n = 8
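For Back pain (TEAE) in this document: human subjects dosed twice daily for 14 days, safety tracked through day 21 follow-up via reported adverse events, examinations, vital signs, ECG and laboratory tests.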
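For Diarrhea (TEAE) in this document: single ascending dose cohorts, safety followed through day 8 via observed or reported adverse events, physical exam, vital signs, ECG and laboratory tests, all dosed subjects analysed.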
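For General disorders and administration- site conditions (TEAE) in this document: human subjects dosed twice daily for 14 days, safety tracked through day 21 follow-up via reported adverse events, examinations, vital signs, ECG and laboratory tests.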
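For Headache (TEAE) in this document: human subjects dosed twice daily for 14 days, safety tracked through day 21 follow-up via reported adverse events, examinations, vital signs, ECG and laboratory tests.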
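For Investigations (TEAE) in this document: single ascending dose cohorts, safety followed through day 8 via observed or reported adverse events, physical exam, vital signs, ECG and laboratory tests, all dosed subjects analysed.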
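For Musculoskeletal and connective tissue disorders (TEAE) in this document: human subjects dosed twice daily for 14 days, safety tracked through day 21 follow-up via reported adverse events, examinations, vital signs, ECG and laboratory tests.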
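For Transaminase increased (TEAE) in this document: single ascending dose cohorts, safety followed through day 8 via observed or reported adverse events, physical exam, vital signs, ECG and laboratory tests, all dosed subjects analysed.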
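For serious AEs in this document: single ascending dose cohorts, safety followed through day 8 via observed or reported adverse events, physical exam, vital signs, ECG and laboratory tests, all dosed subjects analysed.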

Cc1ncc([N+](=O)[O-])n1CCO [metronidazole]
recurrent CDAD, share of patients [1]: up to 45%

CCCCCc1ccc(/C(C)=C/C(=O)N[C@@H](Cc2c[nH]c3ccccc23)C(=O)N[C@H](CC(N)=O)C(=O)N[C@@H](CC(=O)O)C(=O)N[C@@H]2C(=O)NCC(=O)N[C@@H](CCCN)C(=O)N[C@@H](CC(=O)O)C(=O)N[C@H](C)C(=O)N[C@@H](CC(=O)O)C(=O)NCC(=O)N[C@H](CO)C(=O)N[C@@H]([C@H](C)CC(=O)O)C(=O)N[C@@H](CC(=O)c3ccccc3N)C(=O)O[C@@H]2C)cc1 [surotomycin]
bioavailability after oral administration [2]: very low
intestinal absorption [2]: < 1%
time of peak median plasma concentration after the first dose [3]: 6 to 12 h
in vitro potency relative to vancomycin (C. difficile; against C. difficile, by MIC90): fourfold greater
minimum inhibitory concentration at which 90% of the isolates were inhibited [MIC90] (C. difficile): 0.5 µg/mL
AUC(0-inf) (clinical [4]; 500 mg): 317 ng·h/mL
AUC(0-t) (clinical [4]; 500 mg): 260 ng·h/mL
Cmax (clinical [4]; 500 mg): 10.5 ng/mL
Tmax (clinical [4]; 500 mg): 6 h
half-life (clinical [4]; 500 mg): 18.3 h
AUC(0-inf) (clinical [4]; 1000 mg): 702 ng·h/mL
AUC(0-t) (clinical [4]; 1000 mg): 664 ng·h/mL
Cmax (clinical [4]; 1000 mg): 21.5 ng/mL
Tmax (clinical [4]; 1000 mg): 10 h
half-life (clinical [4]; 1000 mg): 21.1 h
AUC(0-inf) (clinical [4]; 2000 mg): 2080 ng·h/mL
AUC(0-t) (clinical [4]; 2000 mg): 1860 ng·h/mL
Cmax (clinical [4]; 2000 mg): 66.6 ng/mL
Tmax (clinical [4]; 2000 mg): 8 h
half-life (clinical [4]; 2000 mg): 16.3 h
AUC(0-inf) (clinical [4]; 4000 mg): 2570 ng·h/mL
AUC(0-t) (clinical [4]; 4000 mg): 2480 ng·h/mL
Cmax (clinical [4]; 4000 mg): 86.7 ng/mL
Tmax (clinical [4]; 4000 mg): 12 h
half-life (clinical [4]; 4000 mg): 14.8 h
At least one TEAE (MAD 250 mg BID (n = 8)): 4 (50.0) n (%)
Back pain (TEAE) (MAD 250 mg BID (n = 8)): 1 (12.5) n (%)
Gastrointestinal disorders (TEAE) (MAD 250 mg BID (n = 8)): 2 (25.0) n (%)
General disorders and administration- site conditions (TEAE) (MAD 250 mg BID (n = 8)): 0 n (%)
Headache (TEAE) (MAD 250 mg BID (n = 8)): 1 (12.5) n (%)
Infections and infestations (TEAE) (MAD 250 mg BID (n = 8)): 0 n (%)
Musculoskeletal and connective tissue disorders (TEAE) (MAD 250 mg BID (n = 8)): 2 (25.0) n (%)
Nervous system disorders (TEAE) (MAD 250 mg BID (n = 8)): 2 (25.0) n (%)
Oropharyngeal pain (TEAE) (MAD 250 mg BID (n = 8)): 0 n (%)
Pruritus (TEAE) (MAD 250 mg BID (n = 8)): 0 n (%)
Respiratory, thoracic, and mediastinal disorders (TEAE) (MAD 250 mg BID (n = 8)): 0 n (%)
Skin and subcutaneous tissue disorders (TEAE) (MAD 250 mg BID (n = 8)): 0 n (%)
At least one TEAE (MAD 500 mg BID (n = 8)): 6 (75.0) n (%)
Back pain (TEAE) (MAD 500 mg BID (n = 8)): 1 (12.5) n (%)
Gastrointestinal disorders (TEAE) (MAD 500 mg BID (n = 8)): 0 n (%)
General disorders and administration- site conditions (TEAE) (MAD 500 mg BID (n = 8)): 0 n (%)
Headache (TEAE) (MAD 500 mg BID (n = 8)): 1 (12.5) n (%)
Infections and infestations (TEAE) (MAD 500 mg BID (n = 8)): 1 (12.5) n (%)
Musculoskeletal and connective tissue disorders (TEAE) (MAD 500 mg BID (n = 8)): 2 (25.0) n (%)
Nervous system disorders (TEAE) (MAD 500 mg BID (n = 8)): 1 (12.5) n (%)
Oropharyngeal pain (TEAE) (MAD 500 mg BID (n = 8)): 1 (12.5) n (%)
Pruritus (TEAE) (MAD 500 mg BID (n = 8)): 1 (12.5) n (%)
Respiratory, thoracic, and mediastinal disorders (TEAE) (MAD 500 mg BID (n = 8)): 2 (25.0) n (%)
Skin and subcutaneous tissue disorders (TEAE) (MAD 500 mg BID (n = 8)): 1 (12.5) n (%)
At least one TEAE (MAD 1000 mg BID (n = 8)): 5 (62.5) n (%)
Back pain (TEAE) (MAD 1000 mg BID (n = 8)): 0 n (%)
Gastrointestinal disorders (TEAE) (MAD 1000 mg BID (n = 8)): 2 (25.0) n (%)
General disorders and administration- site conditions (TEAE) (MAD 1000 mg BID (n = 8)): 2 (25.0) n (%)
Headache (TEAE) (MAD 1000 mg BID (n = 8)): 0 n (%)
Infections and infestations (TEAE) (MAD 1000 mg BID (n = 8)): 1 (12.5) n (%)
Musculoskeletal and connective tissue disorders (TEAE) (MAD 1000 mg BID (n = 8)): 0 n (%)
Nervous system disorders (TEAE) (MAD 1000 mg BID (n = 8)): 2 (25.0) n (%)
Oropharyngeal pain (TEAE) (MAD 1000 mg BID (n = 8)): 1 (12.5) n (%)
Pruritus (TEAE) (MAD 1000 mg BID (n = 8)): 1 (12.5) n (%)
Respiratory, thoracic, and mediastinal disorders (TEAE) (MAD 1000 mg BID (n = 8)): 2 (25.0) n (%)
Skin and subcutaneous tissue disorders (TEAE) (MAD 1000 mg BID (n = 8)): 1 (12.5) n (%)
discontinuation due to AEs (MAD, 500 mg BID, transient moderate anxiety and mild dyspnea 2 h after the 5th dose): One subject
tolerability (MAD, 250, 500, 1000 mg BID): well tolerated
severity of reported AEs (MAD, 250, 500, 1000 mg BID for 14 days): mild to moderate
relation of reported AEs to study drug (MAD, all reported AEs): unrelated to the study drug
headache (MAD, of the 24 subjects who received surotomycin): 2 (8.3%) n (%)
back pain [11]: 2 (8.3%) n (%)
constipation [11]: 2 (8.3%) n (%)
oropharyngeal pain [11]: 2 (8.3%) n (%)
pruritus [11]: 2 (8.3%) n (%)
Tmax ([5]; day 1, cohort n = 8): 6.0 (6.0–9.0) h
Tmax ([5]; day 14 morning dose): 6.0 (0.0–9.0) h
At least one TEAE ([6]; SAD 500 mg (n = 8)): 3 (37.5) n (%)
Diarrhea (TEAE) ([6]; SAD 500 mg (n = 8)): 1 (12.5) n (%)
Gastrointestinal disorders (TEAE) ([6]; SAD 500 mg (n = 8)): 2 (25.0) n (%)
Infections and infestations (TEAE) ([6]; SAD 500 mg (n = 8)): 0 n (%)
Investigations (TEAE) ([6]; SAD 500 mg (n = 8)): 0 n (%)
Transaminase increased (TEAE) ([6]; SAD 500 mg (n = 8)): 0 n (%)
At least one TEAE ([6]; SAD 1000 mg (n = 8)): 0 n (%)
Diarrhea (TEAE) ([6]; SAD 1000 mg (n = 8)): 0 n (%)
Gastrointestinal disorders (TEAE) ([6]; SAD 1000 mg (n = 8)): 0 n (%)
Infections and infestations (TEAE) ([6]; SAD 1000 mg (n = 8)): 0 n (%)
Investigations (TEAE) ([6]; SAD 1000 mg (n = 8)): 0 n (%)
Transaminase increased (TEAE) ([6]; SAD 1000 mg (n = 8)): 0 n (%)
At least one TEAE ([6]; SAD 2000 mg (n = 8)): 5 (62.5) n (%)
Diarrhea (TEAE) ([6]; SAD 2000 mg (n = 8)): 3 (37.5) n (%)
Gastrointestinal disorders (TEAE) ([6]; SAD 2000 mg (n = 8)): 3 (37.5) n (%)
Infections and infestations (TEAE) ([6]; SAD 2000 mg (n = 8)): 0 n (%)
Investigations (TEAE) ([6]; SAD 2000 mg (n = 8)): 1 (12.5) n (%)
Transaminase increased (TEAE) ([6]; SAD 2000 mg (n = 8)): 1 (12.5) n (%)
At least one TEAE ([6]; SAD 4000 mg (n = 8)): 3 (37.5) n (%)
Diarrhea (TEAE) ([6]; SAD 4000 mg (n = 8)): 1 (12.5) n (%)
Gastrointestinal disorders (TEAE) ([6]; SAD 4000 mg (n = 8)): 1 (12.5) n (%)
Infections and infestations (TEAE) ([6]; SAD 4000 mg (n = 8)): 2 (25.0) n (%)
Investigations (TEAE) ([6]; SAD 4000 mg (n = 8)): 1 (12.5) n (%)
Transaminase increased (TEAE) ([6]; SAD 4000 mg (n = 8)): 1 (12.5) n (%)
serious AEs ([6]; SAD group, none discontinued due to AEs): No serious AEs
treatment-related diarrhea ([6]; SAD, all surotomycin subjects (n = 32)): 5 (15.6%) n (%)
increased transaminases [6, 12]: 2 (6.3%) n (%)
subjects with AEs assessed as treatment-related [6, 12]: 9 (28.1%) n (%)
tolerability ([6]; SAD, single oral doses 500, 1000, 2000 or 4000 mg): well tolerated
severity of reported AEs ([6]; SAD, single oral doses 500-4000 mg): mild to moderate
efficacy against initial and relapsing hamster CDAD [7]: highly effective
intestinal absorption [8]: < 1%
AUC(0-t) (clinical [9]; 250 mg, 250 mg BID oral, day 1, 0 to last measurable concentration, cohort n = 8): 41.2 ng·h/mL
AUC(0-t) (clinical [9]; 250 mg, 250 mg BID oral, day 14, 0 to last measurable concentration): 274 ng·h/mL
Cmax (clinical [9]; [13]): 6.8 ng/mL
Cmax (clinical [9]; 250 mg, 250 mg BID oral, day 14, LC/MS/MS): 25.5 ng/mL
Tmax (clinical [9]; [13]): 9 h
Tmax (clinical [9]; 250 mg, 250 mg BID oral, day 14 morning dose, LC/MS/MS): 4.5 h
AUC(0-t) (clinical [9]; 500 mg, 500 mg BID oral, day 1, 0 to last measurable concentration, cohort n = 8): 49.4 ng·h/mL
AUC(0-t) (clinical [9]; 500 mg, 500 mg BID oral, day 14, 0 to last measurable concentration): 313 ng·h/mL
Cmax (clinical [9]; 500 mg, 500 mg BID oral, day 1, LC/MS/MS, cohort n = 8): 11 ng/mL
Cmax (clinical [9]; 500 mg, 500 mg BID oral, day 14, LC/MS/MS): 37.6 ng/mL
AUC(0-t) (clinical [9]; 1000 mg, 1000 mg BID oral, day 1, 0 to last measurable concentration, cohort n = 8): 118 ng·h/mL
AUC(0-t) (clinical [9]; 1000 mg, 1000 mg BID oral, day 14, 0 to last measurable concentration): 771 ng·h/mL
Cmax (clinical [9]; [14]): 21 ng/mL
Cmax (clinical [9]; 1000 mg, 1000 mg BID oral, day 14, LC/MS/MS): 93.5 ng/mL
Tmax (clinical [9]; [14]): 7.5 h
Tmax (clinical [9]; 1000 mg, 1000 mg BID oral, day 14 morning dose, LC/MS/MS): 1.8 h
median cumulative amount of the administered dose recovered in the urine [10]: < 0.01%

CN[C@H](CC(C)C)C(=O)N[C@H]1C(=O)N[C@@H](CC(N)=O)C(=O)N[C@H]2C(=O)N[C@H]3C(=O)N[C@H](C(=O)N[C@H](C(=O)O)c4cc(O)cc(O)c4-c4cc3ccc4O)[C@H](O)c3ccc(c(Cl)c3)Oc3cc2cc(c3O[C@@H]2O[C@H](CO)[C@@H](O)[C@H](O)[C@H]2O[C@H]2C[C@](C)(N)[C@H](O)[C@H](C)O2)Oc2ccc(cc2Cl)[C@H]1O [vancomycin, reference compound]
minimum inhibitory concentration at which 90% of the isolates were inhibited [MIC90] (C. difficile): 2.0 µg/mL
recurrent CDAD, share of patients [1]: up to 45%
